Converted amounts (≈) assume the structure as drawn. Like-named read-outs stand apart in the source and are kept apart here.

Data on three molecules can be found in US11731962B2, “LpxC inhibitor and methods of making” (priority 2020, dated 2023).

Type in all cases: cell-based
Experiment [1] has as its system E. faecalis ATCC 29212. Kind of experiment: Bacterial susceptibility testing, broth microdilution MIC. The settings on record: Enterococcus faecalis, ATCC29212, 35° C., 18-24 h. Here is the method:
(§1) Minimal inhibitory concentrations (MIC) against a variety of gram-negative and gram-positive bacterial strains were determined by the broth microdilution method in accordance with the Clinical and Laboratory Standards Institute (CLSI) guidelines. In brief, organism suspensions were adjusted to a 0.5 McFarland standard to yield a final inoculum between 3×10^5 and 7×10^5 colony-forming units (CFU)/mL. Drug dilutions and inocula were made in sterile, cation adjusted Mueller-Hinton Broth (Beckton Dickinson). An inoculum volume of 100 μL was added to wells containing 100 μL of broth with 2-fold serial dilutions of drug. All inoculated microdilution trays were incubated in ambient air at 35° C. for 18-24 h. Following incubation, the lowest concentration of the drug that prevented visible growth (OD600 nm<0.05) was recorded as the MIC. Performance of the assay was monitored by the use of laboratory quality-control strains and levofloxacin, a compound with a defined MIC spectrum, in accordance with CLSI guidelines.
A general note: In broth dilution the organism is exposed to a series of concentrations in liquid medium.

Experiment [2] relates to S. aureus ATCC 29213. Described as above. As to conditions: for MIC: Staphylococcus aureus, ATCC29213, S. aureus ATCC 29213, broth microdilution, 35° C., 18-24 h. As to the method:
as §1

For experiment [3], the system named is P. acnes ATCC 6919. The description is as above. The settings on record: Cutibacterium acnes, ATCC6919, 35° C., 18-24 h. As to the method:
as §1

The subject of experiment [4] is S. pyogenes ATCC 12384. The experiment is described as above. As to conditions: Streptococcus pyogenes, ATCC12384, 35° C., 18-24 h. Here is the method:
as §1

Experiment [5] concerns B. thuringiensis ATCC 35646. Described as above. The settings on record: Bacillus thuringiensis, ATCC35646, 35° C., 18-24 h. As to the method:
as §1

Experiment [6] has as its system S. pneumoniae ATCC 49619. The experiment is described as above. The settings on record: Streptococcus pneumoniae, ATCC49619, 35° C., 18-24 h. Here is the method:
as §1

For experiment [7], the system named is S. epidermidis ATCC 35984. Described as above. The settings on record: Staphylococcus epidermidis, ATCC35984, 35° C., 18-24 h. As to the method: as §1
Experiment [8] deals with C. sordellii ATCC 9714. The experiment is described as above. The settings on record: Paraclostridium sordellii, ATCC9714, 35° C., 18-24 h. As to the method:
as §1

In experiment [9] the test system is N. cyriacigeorgica complex NBQAS 3295. Described as above. Here is the method:
as §1

Experiment [10] relates to C. jeikeium NCTC 11914. The description is as above. The settings on record: Corynebacterium jeikeium, NCTC11914, 35° C., 18-24 h. Here is the method:
as §1

Experiment [11] deals with L. monocytogenes ATCC 7644. Described as above. The settings on record: Listeria monocytogenes, ATCC7644, 35° C., 18-24 h. Here is the method: as §1
In experiment [12] the test system is B. breve HM 412. The experiment is described as above. As to conditions: Bifidobacterium breve, HM412, 35° C., 18-24 h. As to the method: as §1
For experiment [13], the system named is C. difficile ATCC 700057. The experiment is described as above. As to conditions: Clostridioides difficile, ATCC700057, 35° C., 18-24 h. As to the method: as §1
Experiment [14] deals with P. anaerobius DSM 20357. The description is as above. The settings on record: Peptostreptococcus anaerobius, DSM20357, 35° C., 18-24 h. Here is the method:
as §1

Experiment [15] has as its system E. coli ATCC 25922. The description is as above. As to conditions: Escherichia coli, ATCC25922. As to the method:
as §1

Experiment [16] deals with L. rhamnosus ATCC 53103. Described as above. The settings on record: Lacticaseibacillus rhamnosus, ATCC53103, 35° C., 18-24 h. Here is the method: as §1
The test system of experiment [17] is gram-negative and gram-positive bacterial strains. Kind of experiment: Bacterial susceptibility testing, whole panel. As to conditions: summary of Table 1. Here is the method: as §1
Experiment [18] has as its system K. pneumoniae ATCC 13883. The experiment can be described thus: Bacterial susceptibility testing, broth microdilution MIC. As to conditions: Klebsiella pneumoniae, ATCC13883. Here is the method:
as §1

Setting [19] is: E. coli ATCC 25922, broth microdilution, 35° C., 18-24 h, read-out: MIC.

As for `C[C@H]1COc2c(N3CCN(C)CC3)c(F)cc3c(=O)c(C(=O)O)cn1c23` [Levofloxacin], the MIC in experiment [1] is 1 µg/mL (≈ 2.77 µM); in [2] it was 0.25 µg/mL (≈ 0.692 µM); in experiment [3], 0.5 µg/mL (≈ 1.38 µM); in experiment [4], 0.5 µg/mL (≈ 1.38 µM); in experiment [5] it was 0.125 µg/mL (≈ 0.346 µM); in experiment [6] it was 1 µg/mL (≈ 2.77 µM). Further, the MIC in [7] turned out to be 0.125 µg/mL (≈ 0.346 µM); in experiment [8] it was 1 µg/mL (≈ 2.77 µM); in experiment [9], 8 µg/mL (≈ 22.1 µM); in experiment [10], 1 µg/mL (≈ 2.77 µM); in experiment [11], 1 µg/mL (≈ 2.77 µM); in experiment [12], 4 µg/mL (≈ 11.1 µM). For the same molecule, the MIC in experiment [13] amounted to 4 µg/mL (≈ 11.1 µM); in experiment [14], 0.5 µg/mL (≈ 1.38 µM); in experiment [15] (setting [19]) it was 0.03 µg/mL (≈ 0.083 µM); in experiment [16], 1 µg/mL (≈ 2.77 µM).

With `N#CC1CN(C[C@@H](Cc2ncnc(O)c2O)c2ccc(C#Cc3ccc(CN4CCOCC4)cc3)cc2)C1` [Compound A, (S)-1-(3-(5,6-dihydroxypyrimidin-4-yl)-2-(4-((4-(morpholinomethyl)phenyl)ethynyl)phenyl)propyl)azetidine-3-carbonitrile], the “selectivity for gram-negative bacteria over gram-positive bacteria” value in experiment [17] is listed as “high selectivity”. Moreover, the MIC in experiment [1], in [2], in experiment [3], in experiment [4], in experiment [5] and in experiment [6] was > 64 µg/mL throughout. Besides, the MIC in experiment [18] (K. pneumoniae ATCC 13883, broth microdilution, 35° C., 18-24 h, read-out: MIC) is 0.5 µg/mL (≈ 0.981 µM); in experiment [18] (K. pneumoniae cell lines, strain not named, read-out: MIC values) it was < 1 µg/mL; in experiment [7], > 64 µg/mL; in experiment [8], > 64 µg/mL; in experiment [9], > 64 µg/mL; in experiment [10], > 64 µg/mL. The MIC in experiment [11] was > 64 µg/mL; in experiment [12] it was > 64 µg/mL; in [13], > 64 µg/mL; in [14], > 64 µg/mL; in experiment [15] (setting [19]), 0.5 µg/mL (≈ 0.981 µM); in experiment [15] (E. coli cell lines, strain not named, read-out: MIC values) it was < 1 µg/mL. Moreover, in experiment [16], the MIC was > 64 µg/mL. Besides, the “inhibition of gram-positive bacterial cell lines” value in experiment [2] (gram-positive bacterial cell lines, such as S. aureus) is listed as “does not inhibit”.

For `C[C@@H](O)[C@H]1C(=O)N2C(C(=O)O)=C(S[C@@H]3CN[C@H](C(=O)N(C)C)C3)[C@H](C)[C@H]12` [Meropenem], the “activity against gram-positive bacteria” value in [17] is “do have activity against various strains of gram-positive bacteria”. Also, the MIC is > 1 µg/mL in [1]; 0.06 µg/mL (≈ 0.156 µM) in experiment [3]; 0.008 µg/mL (≈ 0.0209 µM) in [4]; 0.06 µg/mL (≈ 0.156 µM) in experiment [5]; 0.06 µg/mL (≈ 0.156 µM) in [6]; > 1 µg/mL in experiment [7]. Besides, the MIC in experiment [8] is 0.015 µg/mL (≈ 0.0391 µM); in experiment [9], > 1 µg/mL; in [10] it was > 1 µg/mL; in experiment [12] it was > 1 µg/mL; in experiment [13] it was 1 µg/mL (≈ 2.61 µM); in [14], > 1 µg/mL. The MIC in experiment [15] (setting [19]) is 0.03 µg/mL (≈ 0.0782 µM); in experiment [16], > 1 µg/mL.
